Reference: PubChem BioAssay (NCI)
Values joined by “and” are separate entries in the source; they are usually repeats but may differ in a detail not shown here. Equal entries are not always repeated.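 Five concentrations, 48 hours, 96-well plates. GI50 = concentration required for 50% inhibition of growth. TGI marks complete inhibition of growth.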

Columns and labels:
Test in all cases: inhibition of tumour cell growth, NCI panel, 48 h
[1] = system: M14 melanoma
[2] = system: HOP-92 NSCLC
[3] = system: SW-620 colon
[4] = system: NCI-H460 lung
[5] = system: T-47D breast
[6] = system: TK-10 renal
[7] = system: HCT-116 colon
[8] = system: OVCAR-3 ovarian
[9] = system: PC-3 prostate
[10] = system: NCI/ADR-RES ovarian

Row | SMILES | GI50 [1] | TGI [1] | GI50 [2] | TGI [2] | GI50 [3] | TGI [3] | GI50 [4] | TGI [4] | GI50 [5] | TGI [5] | GI50 [6] | TGI [6] | GI50 [7] | TGI [7] | GI50 [8] | TGI [8] | GI50 [9] | TGI [9] | GI50 [10] | TGI [10]
1 | COc1ccc(-c2cc(-c3ccc(O)cc3)nc3nc(=S)[nH]c(N)c23)cc1 | 19.7 µM | 35.4 µM | 5.15 µM | 36.4 µM | 16 µM | 33.3 µM | 15.9 µM | 36.9 µM | 14.3 µM | 80.1 µM | 32.2 µM | 92.9 µM | 15.4 µM | 31.3 µM | 16.4 µM | 45 µM | 15.8 µM | 43.7 µM | 26.1 µM | 66.3 µM
2 | CC(=O)Oc1ccc2ccc(=O)oc2c1OC(C)=O | – | > 100 µM | – | > 100 µM | – | > 100 µM | – | > 100 µM | – | > 100 µM | – | > 100 µM | – | > 100 µM | – | > 100 µM | – | > 100 µM | – | > 100 µM
3 | COc1ccc(Nc2c3c4c(cccc4[nH]c2=O)C(=O)c2ccccc2-3)cc1 | < 0.0192 µM | > 100 µM | 0.332 µM | > 100 µM | < 0.0203 µM | > 100 µM | < 0.01 µM | 10.1 µM | 38.4 µM | > 100 µM | < 0.0225 µM | 21.3 µM | < 0.01 µM | 0.104 µM | < 0.0158 µM | < 0.0257 µM | 0.0473 µM | > 100 µM | 0.0227 µM | 0.0526 µM
4 | COc1ccc(/C=C2\N=C(c3ccccc3)N(c3cc(C(F)(F)F)ccc3Cl)C2=O)cc1OC | 28.5 µM | 65.8 µM | 83.9 µM | > 100 µM | 20.5 µM | 46.2 µM | 43 µM | > 100 µM | > 100 µM | > 100 µM | 93.6 µM | > 100 µM | 21.4 µM | 41.4 µM | 37.9 µM | > 100 µM | 31.4 µM | > 100 µM | 55.6 µM | > 100 µM
5 | O=C1CSC(=S)N1c1ccc(F)cc1F | – | > 100 µM | – | > 100 µM | – | > 100 µM | – | > 100 µM | – | > 100 µM | – | > 100 µM | – | > 100 µM | – | > 100 µM | – | > 100 µM | – | > 100 µM
6 | O=C(CSc1nc2ccc([N+](=O)[O-])cc2[nH]1)Nc1cccc(Cl)c1 | 3.06 µM | 13.6 µM | 0.421 µM | 3.3 µM | 3.38 µM | 19.8 µM | 3.22 µM | 13.1 µM | 1.55 µM | 18.9 µM | 3.31 µM | 11.8 µM | 2.81 µM | 11.7 µM | 2.38 µM | 14 µM | 2.63 µM | 16.1 µM | 2.41 µM | 9.13 µM
7 | COC(=O)C(/C(=N/N)C(=O)Nc1ccc(C)c(C)c1)c1nc2ccc(Cl)cc2[nH]c1=O (stereo unspecified) | – | > 100 µM | – | > 100 µM | – | > 100 µM | – | > 100 µM | – | > 100 µM | – | > 100 µM | – | > 100 µM | – | > 100 µM | – | > 100 µM | – | > 100 µM
8 | CCOC(=O)C1=C(N)Oc2c(sc3c(C)cccc23)C1c1ccc(Cl)cc1 (stereo unspecified) | 2.46 µM | 11.2 µM | 3.83 µM | 20.7 µM | 3.64 µM | 16.8 µM | 3.29 µM | 11.6 µM | 2.79 µM | 18.8 µM | 12.6 µM | 29.1 µM | 2.83 µM | 12.1 µM | 2.69 µM | 9.61 µM | 2.53 µM | 13.5 µM | 0.952 µM | 7.18 µM
9 | Fc1ccc(CNc2c3ccccc3nc3ccccc23)cc1 | 2.97 µM | 12.4 µM | 2.25 µM | 11.5 µM | 1.95 µM | 6.84 µM | 2.3 µM | 6.69 µM | 2.53 µM | 10 µM | 2.83 µM | 10.6 µM | 2.12 µM | 11.8 µM | 2.37 µM | 5.43 µM | 3.11 µM | 16.8 µM | 2.33 µM | 8.07 µM
10 | COc1ccc2nc3cccc([N+](=O)[O-])c3c(NCCN(CCO)CCO)c2c1 | 0.0128 µM | 0.0275 µM | 0.0278 µM | 0.0829 µM | 0.0139 µM | 0.619 µM | 0.0104 µM | 0.0985 µM | 0.0913 µM | 1.01 µM | 0.0307 µM | 0.229 µM | 0.0154 µM | 0.607 µM | 0.0187 µM | 0.0501 µM | – | 0.219 µM | 0.689 µM | 4.6 µM
11 | C/C(=N\Nc1ccc2ccccc2n1)c1ccccc1O | – | > 100 µM | – | > 100 µM | – | > 100 µM | – | > 100 µM | – | > 100 µM | – | > 100 µM | – | > 100 µM | – | > 20 µM | – | > 100 µM | – | > 100 µM
12 | CC(C)(C)C(=O)OCOP(=O)(OCOC(=O)C(C)(C)C)C1CCCN(OC(=O)c2ccccc2)C1=O (stereo unspecified) | 2.3 µM | 16.5 µM | 1.25 µM | 35.8 µM | 1.42 µM | 24.4 µM | 1.11 µM | 15.3 µM | 1.38 µM | 16.7 µM | 2.16 µM | 23.2 µM | 0.558 µM | 6.46 µM | 1.24 µM | 7.28 µM | 4.38 µM | > 100 µM | 0.721 µM | 7.76 µM
13 | CCCCCCCCCCCCOC1C(CNC(=O)C2OC3OC(C)(C)OC3C2NC(=O)CN2CCN(c3ccccn3)CC2)OC2OC(C)(C)OC21 (stereo unspecified) | 1.68 µM | 3.1 µM | 1.7 µM | 3.18 µM | 1.69 µM | 3.18 µM | 1.77 µM | 3.38 µM | 2.81 µM | 8.61 µM | 1.76 µM | 3.27 µM | 1.61 µM | 3.04 µM | 1.54 µM | 3.02 µM | 1.75 µM | 3.24 µM | 2.64 µM | 7.39 µM
14 | CCCN(CCC)c1ccc(C=O)cc1 | > 100 µM | > 100 µM | 13 µM | 66.2 µM | 54.7 µM | > 100 µM | > 100 µM | > 100 µM | 21.1 µM | > 100 µM | 37.5 µM | > 100 µM | 39.7 µM | > 100 µM | 24.9 µM | > 87.4 µM | 38.1 µM | > 100 µM | 56.3 µM | > 100 µM
15 | Cn1cc(C2=C(c3c4n(c5ccccc35)CC(CN)C4)C(=O)NC2=O)c2ccccc21 (stereo unspecified) | 3.3 µM | 7.33 µM | 4.32 µM | 11.6 µM | 2.98 µM | 6.84 µM | 3.79 µM | 7.8 µM | 5.26 µM | 13.5 µM | 2.94 µM | 8.07 µM | 2.32 µM | 6.22 µM | 2.82 µM | 9.35 µM | 2.04 µM | 9.01 µM | 10.1 µM | 25 µM
16 | O=C1Nc2ccccc2C1(c1ccc(O)c(F)c1)c1ccc(O)c(F)c1 | 12 µM | 65.5 µM | 2.36 µM | 16.6 µM | 20.6 µM | 84.3 µM | 19 µM | 47.8 µM | 0.226 µM | 0.622 µM | 0.409 µM | 11.3 µM | 11.6 µM | 52.7 µM | 0.295 µM | 0.918 µM | 1.08 µM | 6.95 µM | 0.389 µM | > 100 µM
17 | CS(=O)(=O)N1CCN(Cc2cc3nc(-c4cccc5[nH]ncc45)nc(N4CCOCC4)c3s2)CC1 | 2.13 µM and 0.438 µM | > 100 µM | 0.0232 µM and 0.0547 µM | 0.197 µM and 0.508 µM | 1.29 µM and 0.484 µM | > 100 µM | 0.357 µM and 0.311 µM | > 100 µM | 0.0668 µM and 0.035 µM | 0.505 µM | 0.11 µM and 0.0949 µM | 0.789 µM and 0.74 µM | 1.72 µM and 0.494 µM | > 100 µM | 0.245 µM and 0.194 µM | 3.82 µM and > 5.15 µM | 0.218 µM and 0.26 µM | > 100 µM | 1.76 µM and 1.44 µM | > 100 µM
18 | O=S(=O)(O)c1ccc(Cl)cc1.[Cd] | > 100 µM | > 100 µM | > 100 µM | > 100 µM | 52.3 µM | > 100 µM | 4.61 µM | 25.3 µM | 27 µM | 53.8 µM | > 100 µM | > 100 µM | > 100 µM | > 100 µM | 18.5 µM | 44.4 µM | 25.2 µM | 66.3 µM | > 100 µM | > 100 µM
19 | COc1ccc2c(CC(=O)O)cc(=O)oc2c1 | – | > 100 µM | – | > 100 µM | – | > 100 µM | – | > 100 µM | – | > 100 µM | – | > 100 µM | – | > 100 µM | – | > 100 µM | – | > 100 µM | – | > 100 µM
20 | NC(=O)c1nnn(Cc2cc(Cl)c(C(=O)c3ccc(Cl)cc3)c(Cl)c2)c1N | > 9.09 µM | > 9.09 µM and 36.7 µM | > 9.09 µM | > 9.09 µM and 48.8 µM | > 9.09 µM | > 9.09 µM and 50.1 µM | 1.04 µM | > 9.09 µM and 40.2 µM | – | > 51.6 µM | > 9.09 µM | > 9.09 µM and 39 µM | > 9.09 µM | > 9.09 µM and 35.2 µM | > 9.09 µM | > 9.09 µM and 25 µM | – | > 50.2 µM | – | > 66.4 µM
